{
  "source": "paper PMC11234460",
  "about": "“In Silico Discovery of Stapled Peptide Inhibitor Targeting the Nur77‐PPARγ Interaction and Its Anti‐Breast‐Cancer Efficacy” (Advanced Science, 2024)",
  "key": {"[1]": {"experiment": "Solubility test in PBS", "format": "physicochemical", "details": "1 mg in 50 µL, gradient diluted from 20 to 0.078125 mg mL^−1, OD at 600 nm (turbidity), plate reader", "procedure": "Mix 1 mg ST‐CY14 or Csn‐B (Shanghai Sunny Biotech) in 50 µL PBS buffer, and then transfer 40 µL the suspension to a 96‐well plate. The suspension was gradient diluted from 20 to 0. 07 8125 mg mL^−1. OD values were measured at 600 nm on a Cytation 5 (Biotek, USA) plate reader. PBS was set as a blank control."}, "[2]": {"test_system": "MDA-MB-231 cells", "experiment": "Transwell cell migration analysis", "format": "cell-based", "details": "MDA-MB-231, 12 h", "procedure": "(§1) 600 µL DMEM complete medium was added to the lower chamber of the Transwell. Next, 2×10^4 cells in 100 µL DMEM medium, containing 1, 2, 5, 10, or 2 × 10^−5 M peptides, were added to the upper chamber of the Transwell. The cells were incubated for 12 h at 37 °C and 5% CO2. After the incubation period, the medium was discarded, and the chamber was washed with PBS. The cells were then fixed with 4% paraformaldehyde for 20 min. The upper chamber was subsequently soaked in crystal violet for 20 min, washed with PBS, and observed under a microscope for analysis."}, "[3]": {"test_system": "MDA-MB-231 cells", "experiment": "Scratch (wound-healing) assay", "format": "cell-based", "details": "MDA-MB-231, 12 h", "procedure": "(§2) MCF7 and MDA‐MB‐231 cells were seeded in 6‐well plates and cultured overnight. Once the cell density reached 90%, a line was scratched along the center of the 6‐well plate and images were taken randomly in the scratch domain under a microscope. The cells in each well were then treated with peptides of varying concentrations for 12 h, after which images were taken again in the scratch domain. The formula used to calculate the scratch healing rate was as follows: Scratch healing rate (%) = [(Scratch area at 0 h – Scratch area at 12 h) […] Scratch area at 0 h] × 100%."}, "[4]": {"test_system": "MCF7 cells", "experiment": "Scratch (wound-healing) assay", "format": "cell-based, human", "details": "MCF7, 12 h", "procedure": "as §2"}, "[5]": {"test_system": "α-chymotrypsin", "experiment": "Protease stability in α-chymotrypsin solution", "format": "in vitro ADME", "details": "α-chymotrypsin solution; α-chymotrypsin 0.5 ng µL^−1 in PBS (5 × 10^−2 M, 2 × 10^−3 M CaCl2, pH 7.4); 100 µL of 1 × 10^−3 M peptide + 1 mL enzyme; room temperature; 5-480 min; quenched with 1 M HCl; analytical HPLC at 214 nm", "procedure": "The peptides were dissolved in PBS (pH 7.4) to a final concentration of 1 × 10^−3 M. α‐Chymotrypsin was dissolved in PBS (5 × 10^−2 M, containing 2 × 10^−3 M CaCl2, pH 7.4) to a final concentration of 0.5 ng µL^−1. Subsequently, 100 µL peptides were incubated with α‐chymotrypsin (1 mL) at room temperature, and 100 µL of the digestion mixture was collected at different times (5/10/20/30/60/120/240/480 min) and added to a centrifuge tube containing 20 µL of 1 M HCl to quench the enzymatic reaction. The solution of α‐Chymotrypsin peptide fragments was monitored by analytical HPLC to determine the fraction of protease degradation at 214 nm."}, "[6]": {"test_system": "MCF7 cells", "experiment": "Transwell cell migration analysis", "format": "cell-based, human", "details": "MCF7, 12 h", "procedure": "as §1"}, "[7]": {"test_system": "MDA-MB-231 cells", "experiment": "Western blot of Nur77, CD36 and FABP4", "format": "cell-based", "procedure": "(§3) MCF7 and MDA‐MB‐231 cells were treated with various concentrations of peptide. The cells were then collected and lysed in NP40 lysis buffer. Total protein was quantified using a BCA assay kit (Beyotime, P0010S). The proteins were separated by SDS‐PAGE and transferred onto a PVDF membrane. The PVDF membrane was blocked in TBST containing 5% non‐fat milk, and then incubated with primary antibodies overnight at 4 °C. Subsequently, membranes were incubated with horseradish peroxidase‐conjugated antirabbit or antimouse IgG secondary antibody for 1 h at room temperature. The membranes were analyzed by a Tanon‐5200 Multi Gel Imaging Analysis System (Tanon) and quantified by ImageJ software."}, "[8]": {"test_system": "MCF7 cells", "experiment": "Western blot of Nur77, CD36 and FABP4", "format": "cell-based, human", "procedure": "as §3"}, "[9]": {"molecular_target": "T1, Nur77-PPARγ complex (Homo sapiens, UniProt P22736)", "T1 construct": "expressed in transfected cells; host or cells: HEK293T", "T1 sequence (P22736 whole entry, one chain of several)": "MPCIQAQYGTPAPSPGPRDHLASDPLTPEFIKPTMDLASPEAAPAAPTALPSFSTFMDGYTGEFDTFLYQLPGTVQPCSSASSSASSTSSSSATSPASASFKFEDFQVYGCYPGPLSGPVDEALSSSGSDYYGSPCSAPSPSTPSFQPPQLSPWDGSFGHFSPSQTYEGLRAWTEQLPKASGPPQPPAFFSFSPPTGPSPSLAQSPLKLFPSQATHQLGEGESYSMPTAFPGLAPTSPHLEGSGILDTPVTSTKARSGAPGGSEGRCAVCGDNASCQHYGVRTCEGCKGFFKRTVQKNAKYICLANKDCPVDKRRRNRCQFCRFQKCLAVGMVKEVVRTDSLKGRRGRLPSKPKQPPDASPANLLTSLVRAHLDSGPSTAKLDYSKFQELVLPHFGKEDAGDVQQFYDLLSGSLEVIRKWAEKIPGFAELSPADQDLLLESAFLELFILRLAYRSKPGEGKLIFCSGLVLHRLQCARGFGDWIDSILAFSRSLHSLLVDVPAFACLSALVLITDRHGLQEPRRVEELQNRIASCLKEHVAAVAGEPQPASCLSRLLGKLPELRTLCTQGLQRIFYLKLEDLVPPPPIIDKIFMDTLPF", "experiment": "NanoBiT assay of Nur77-PPARγ complex formation in HEK293T cells", "format": "cell-based", "details": "1 × 10^−5 M peptide, 1 h, n = 3", "procedure": "HEK293T cells were seeded in a poly‐d‐lysine‐coated black 96‐well cell culture plate at 10 000 cells per well in 100 µL culture medium. The next day, the master mix of 100 ng receptor construct containing the PPARγ‐LargeBit and SmallBit‐Nur77 plasmids (w/w, 50 ng:50 ng) was diluted in Opti‐MEM Medium (Gibco, 11058‐021), then P3000 Reagent was added. Meanwhile, 0.15 µL Lipofectamine 3000 reagent (ThermoFisher, L3000015) was added to 5 µL Opti‐MEM Medium. Subsequently, diluted DNA was added to Lipofectamine 3000 reagent (V/V, 1:1) and incubated for 15 min at room temperature. A mixture containing the above plasmids and Lipofectamine 3000 was prepared and added to each well. After 24 h, the cells were treated with 1 × 10^−5 M peptides (TAT, T‐CY14, S‐CY14, and ST‐CY14) or variable concentrations of ST‐CY‐14 (0.1/0.2/0.5/1/2/5/10/20/40 × 10^−6 M) for 1 h. The culture medium was replaced with 90 µL Tyrode's solution (Solarbio, T1420). Then, 10 µL furimazine (5 × 10^−5 M) was added to each well and the luminescence signal was measured every 86 s for 1 h at 37 °C."}, "[10]": {"experiment": "CD spectroscopy, α-helicity", "format": "physicochemical", "details": "5 × 10^−5 M peptide in H2O, 25 °C, 1 mm cuvette, 185-260 nm", "procedure": "The detection wavelengths of the peptides were 214 and 254 nm. Solvent A: H2O (containing 0.1% TFA) and solvent B: acetonitrile (containing 0.1% TFA) were used as solvents in linear gradient mixtures. Peptide purification was performed by semi‐preparative HPLC using an XBridge Prep C18 column (19 × 250 mm, 10 µm particle size, flow rate of 20 mL min^−1). Solvents A and B were the same as those in the peptide analysis procedure. The peptides were dissolved in H2O to a final concentration of 5 × 10^−5 M. The purified peptide was detected using a mass spectrometer (6410 Triple Quad LC/MS, Agilent, USA) (Table S2, Supporting Information). The solvent was 80% methanol and 20% H2O (containing 0.1% formic acid). The CD spectra were obtained with a 1 mm quartz cuvette on a BRIGHT TIME Chirasca (Applied Photophysics, Britain) spectropolarimeter with a scan wavelength between 185–260 nm at 25 °C. The helicity of each peptide was calculated by the literature equation.^[ [24] ^]"}},
  "note": "Where a SMILES comes first, the peptide text is derived from it. Bridges are numbered along the chain shown (N, C = ends). [ ]: non-standard residue; d: D form. S5 = C=CCCC[C@](C)(N)C(=O)O",
  "data": [
    {"compound": "CCCCCCCC(=O)c1c(O)cc(O)cc1CC(=O)OCC", "note": "[Csn-B, cytosporone B, reference compound]", "values": [
      {"measurement": "Solubility in PBS", "setting": "[1]", "result": "≈ 1 mg mL^−1"}
    ]},
    {"compound": "CC[C@H](C)[C@H](NC(=O)[C@@H](NC(=O)[C@H](CCCNC(=N)N)NC(=O)[C@H](CCCNC(=N)N)NC(=O)[C@H](Cc1ccccc1)NC(=O)[C@H](Cc1ccccc1)NC(=O)CNC(=O)[C@H](CCCCN)NC(=O)[C@H](CS)NC(=O)CNC(=O)[C@H](CCC(=O)O)NC(=O)[C@@H](N)CS)[C@@H](C)O)C(=O)N[C@@H](CCCNC(=N)N)C(=O)N[C@@H](Cc1ccc(O)cc1)C(=O)N[C@@H](Cc1ccc(O)cc1)C(=O)NCC(=O)N[C@@H](CCCNC(=N)N)C(=O)N[C@@H](CCCCN)C(=O)N[C@@H](CCCCN)C(=O)N[C@@H](CCCNC(=N)N)C(=O)N[C@@H](CCCNC(=N)N)C(=O)N[C@@H](CCC(N)=O)C(=O)N[C@@H](CCCNC(=N)N)C(=O)N[C@@H](CCCNC(=N)N)C(=O)N[C@@H](CCCNC(=N)N)C(N)=O", "note": "[T-CY14] (H-CEGCKGFFRRTIRYYGRKKRRQRRR-NH2)", "values": [
      {"measurement": "Transwell transmigration", "setting": "[2]", "result": "inhibited the transmigration"},
      {"measurement": "Scratch healing", "setting": "[3]", "result": "suppressed the scratch healing"},
      {"measurement": "Scratch healing", "setting": "[4]", "result": "suppressed the scratch healing"},
      {"measurement": "half-life at 90.9 µM", "setting": "[5]", "result": 4.94, "unit": "min"},
      {"measurement": "Transwell transmigration", "setting": "[6]", "result": "inhibited the transmigration"},
      {"measurement": "CD36 and FABP4 protein expression (immunoblot)", "setting": "[7]", "result": "had some effect, but its efficacy was much lower"},
      {"measurement": "Nur77 protein expression (immunoblot)", "setting": "[7]", "result": "increase in Nur77 expression"},
      {"measurement": "CD36 and FABP4 protein expression (immunoblot)", "setting": "[8]", "result": "had some effect, but its efficacy was much lower"},
      {"measurement": "Nur77 protein expression (immunoblot)", "setting": "[8]", "result": "increase in Nur77 expression"}
    ]},
    {"compound": "N=C(N)NCCC[C@H](NC(=O)[C@H](CCCNC(=N)N)NC(=O)[C@H](CCCNC(=N)N)NC(=O)[C@H](CCC(N)=O)NC(=O)[C@H](CCCNC(=N)N)NC(=O)[C@H](CCCNC(=N)N)NC(=O)[C@H](CCCCN)NC(=O)[C@H](CCCCN)NC(=O)[C@H](CCCNC(=N)N)NC(=O)CNC(=O)[C@@H](N)Cc1ccc(O)cc1)C(N)=O", "note": "[TAT, reference compound]", "values": [
      {"measurement": "Effect on NanoBiT luminescence (Nur77-PPARγ complex)", "setting": "[9]", "result": "minimal effects on the luminescence"}
    ]},
    {"compound": "C[C@@H](O)[C@@H]1NC(=O)[C@H](CCCNC(=N)N)NC(=O)[C@H](CCCNC(=N)N)NC(=O)[C@@](C)(NC(=O)[C@H](Cc2ccccc2)NC(=O)CNC(=O)[C@H](CCCCN)NC(=O)[C@H](CS)NC(=O)CNC(=O)[C@H](CCC(=O)O)NC(=O)[C@@H](N)CS)CCCC=CCCC[C@@](C)(C(=O)N[C@@H](CCCNC(=N)N)C(=O)N[C@@H](Cc2ccc(O)cc2)C(N)=O)NC1=O", "note": "[S-CY14] (H-CEGCKGF[S5]RRT[S5]RY-NH2; staple 8-12)", "values": [
      {"measurement": "Effect on NanoBiT luminescence (Nur77-PPARγ complex)", "setting": "[9]", "result": "minimal effects on the luminescence"},
      {"measurement": "α-Helicity (CD)", "setting": "[10]", "result": 15.6, "unit": "%"}
    ]}
  ]
}
